Our source for the GI50 values is US12655150B2 (Cedilla Therapeutics, Inc., priority 2021, dated 2026).

Structures are written as SMILES. Bounds are passed on as bounds.

The term GI50 denotes the concentration giving 50% growth inhibition. Read a high GI50 as less potent growth inhibition.

The subject of one test is NCI-H226. Kind of test: 72H TEAD Proliferation Assay (Cell Titer Glo 2.0). The class given is cell-based. The conditions noted are these: Homo sapiens, CTG 2.0, cell line not given (NCI-H226 responsive, NCI-H28 non-responsive). In a few lines: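 NF2-deficient NCI-H226 mesothelioma cells, TEAD-dependent, treated 72 h; NF2-wild-type NCI-H28 serves as the TEAD-independent counter-screen for off-target cytotoxicity. Viable cells quantified by CellTiter-Glo 2.0 luminescence; background and time-zero signal subtracted, GI50 from nonlinear dose-response fit.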
(In general: In ATP-based viability assays light output follows the ATP content of the culture.)
Take `O=C(/C=C/CF)NCc1nc(-c2ccc(C(F)(F)F)cc2)c2cccnc2n1` [I-308, (E)-4-fluoro-N-((4-(4-(trifluoromethyl)phenyl)pyrido[2,3-d]pyrimidin-2-yl)methyl)but-2-enamide]: the GI50 is not above 1 µM.

Staying with this test, now noted: Homo sapiens, NCI-H226, 72 h, CTG 2.0, cell line not given (NCI-H226 responsive, NCI-H28 non-responsive).
`O=C(O)c1ccc2c(c1)nc(-c1ccc(C3(C(F)(F)F)CC3)cc1)c1nccn12` [I-67, 4-(4-(1-(Trifluoromethyl)cyclopropyl)phenyl)imidazo[1,2-a]quinoxaline-7-carboxylic acid] registered a GI50 of more than 10 µM. `C=CC(=O)N1CCc2c(cccc2-c2ccc(C(F)(F)F)cc2)C1` [I-136, 1-(5-(4-(Trifluoromethyl)phenyl)-3,4-dihydroisoquinolin-2(1H)-yl)prop-2-en-1-one] came in with a GI50 not above 1 µM. `CCC(=O)Nc1ccc2c(c1)nc(-c1ccc(C(C)(C)C)cc1)c1nccn12` [I-134, N-(4-(4-(tert-butyl)phenyl)imidazo[1,2-a]quinoxalin-7-yl)propionamide] returned a GI50 of 1 to 5 µM.

As to `COc1cc(-c2ccc(C(F)(F)F)cc2)nc2cc(C(=O)N[C@@H](C)c3cccc(C(=O)O)c3)ccc12` [I-347, (S)-3-(1-(4-methoxy-2-(4-(trifluoromethyl)phenyl)quinoline-7-carboxamido)ethyl)benzoic acid], the 50% growth inhibitory concentration (GI50) was 5 to 10 µM.

Take `Cc1cn2cc(CNC(=O)/C=C/CF)nc(-c3ccc(C(F)(F)F)cc3)c2n1` [I-248, (E)-4-fluoro-N-((2-methyl-8-(4-(trifluoromethyl)phenyl)imidazo[1,2-a]pyrazin-6-yl)methyl)but-2-enamide]: the concentration for 50% growth inhibition (GI50) was not above 1 µM.

The compound `CC(C)(C)c1ccc(-c2nc3cc(NS(C)(=O)=O)ccc3n3cccc23)cc1` [I-122, N-(4-(4-(tert-butyl)phenyl)pyrrolo[1,2-a]quinoxalin-7-yl)methanesulfonamide] returned a concentration for 50% growth inhibition (GI50) of 1 to 5 µM. Regarding `CCOc1nc(-c2ccc(C(F)(F)F)cc2)nc2cc(C(=O)O)ccc12` [I-432, 4-ethoxy-2-(4-(trifluoromethyl)phenyl)quinazoline-7-carboxylic acid], the GI50 was not above 1 µM. Compound `COCC(C)NC(=O)N1CCc2c(cccc2-c2ccc(C(F)(F)F)cc2)C1` (centres unmarked) [I-78, N-(1-methoxypropan-2-yl)-5-(4-(trifluoromethyl)phenyl)-3,4-dihydroisoquinoline-2(1H)-carboxamide] came in with a GI50 not above 1 µM. For the compound `COc1nc(-c2ccc(C(F)(F)F)cc2)nc2cc(C(=O)O)ccc12` [I-433, 4-methoxy-2-(4-(trifluoromethyl)phenyl)quinazoline-7-carboxylic acid], the GI50 was not above 1 µM. Same read-out and setting: then `COC(=O)c1ccc2c(c1)nc(-c1ccc(C(C)(C)C)cc1)c1cccn12` [Compound I-164], with more than 10 µM; and `C=CC(=O)NCc1cc2nccn2c(-c2ccc(C(F)(F)F)cc2)n1` [I-315, N-((5-(4-(trifluoromethyl)phenyl)imidazo[1,2-c]pyrimidin-7-yl)methyl)acrylamide], with not above 1 µM; and `CC(C)(C)c1ccc(-c2nc(CCc3nnn[nH]3)cn3ccnc23)cc1` [I-156, 6-(2-(1H-tetrazol-5-yl)ethyl)-8-(4-(tert-butyl)phenyl)imidazo[1,2-a]pyrazine], with more than 10 µM. The compound `FC(F)(F)c1ccc(-c2nc(C3CC(Br)=NO3)cn3ccnc23)cc1` (centres unmarked) [I-176, 3-bromo-5-(8-(4-(trifluoromethyl)phenyl)imidazo[1,2-a]pyrazin-6-yl)-4,5-dihydroisoxazole] yielded a concentration for 50% growth inhibition (GI50) not above 1 µM. As for `CC(C)C12CC(Nc3nc4cc(C(=O)O)ccc4n4cccc34)(C1)C2` [I-22, 4-((3-Isopropylbicyclo[1.1.1]pentan-1-yl)amino)pyrrolo[1,2-a]quinoxaline-7-carboxylic acid], the GI50 was in the range of 1 to 5 µM. The compound `C=CC(=O)NCc1cn2ccnc2c(Nc2ccc(C(F)(F)F)cn2)n1` [I-170, N-((8-((5-(trifluoromethyl)pyridin-2-yl)amino)imidazo[1,2-a]pyrazin-6-yl)methyl)acrylamide] came in with a GI50 not above 1 µM. With `CC1(C)CCN(c2nc3cc(C(=O)O)ccc3n3cccc23)CC1` [I-3, 4-(4,4-Dimethylpiperidin-1-yl)pyrrolo[1,2-a]quinoxaline-7-carboxylic acid], the GI50 was 1 to 5 µM.

Compound `Cc1cc(C(F)(F)F)ccc1-c1nc2cc(C(=O)O)ccc2n2cccc12` [I-52, 4-(2-Methyl-4-(trifluoromethyl)phenyl)pyrrolo[1,2-a]quinoxaline-7-carboxylic acid] displayed a GI50 of 1 to 5 µM. The same measure, in the same setting: then `C=CC(=O)NCc1nc(-c2ccc(C(F)(F)F)cc2F)c2ncccc2n1` [I-306, N-((4-(2-fluoro-4-(trifluoromethyl)phenyl)pyrido[3,2-d]pyrimidin-2-yl)methyl)acrylamide], with not above 1 µM; and `CC(C)(C)c1ccc(-c2cncc3cc(C(=O)O)ccc23)cc1` [I-95, 4-(4-(tert-Butyl)phenyl)isoquinoline-7-carboxylic acid], with more than 10 µM. Turning to `C=CC(=O)Nc1ccc2c(c1)nc(-c1ccc(C(F)(F)F)cc1F)c1cccn12` [I-114, N-(4-(2-Fluoro-4-(trifluoromethyl)phenyl)pyrrolo[1,2-a]quinoxalin-7-yl) acrylamide], the GI50 is not above 1 µM.

`C=CC(=O)Nc1ccc2c(C)cc(-c3ccc(C(C)(C)C)cc3)nc2c1` [I-86, N-(2-(4-(tert-Butyl)phenyl)-4-methylquinolin-7-yl)acrylamide] displayed a GI50 not above 1 µM. `C=CC(=O)NCc1cn2c(F)ccc2c(-c2ccc(C(C)(C)C)cc2)n1` [I-409, N-((1-(4-(tert-butyl)phenyl)-6-fluoropyrrolo[1,2-a]pyrazin-3-yl)methyl)acrylamide] displayed a GI50 not above 1 µM. `O=C(O)c1cc2nc(N3CCC4(CC3)CC4)c3cccn3c2cn1` [I-281, 6-(6-azaspiro[2.5]octan-6-yl)pyrido[4,3-e]pyrrolo[1,2-a]pyrazine-3-carboxylic acid]: the GI50 lay within 1 to 5 µM. The same measure, in the same setting: the figure for `C=CC(=O)NCc1cn2ccnc2c(Oc2cccc(C(F)(F)F)c2)n1` [I-171, N-((8-(3-(trifluoromethyl)phenoxy)imidazo[1,2-a]pyrazin-6-yl)methyl)acrylamide] is not above 1 µM. Still for that read-out and setting: then `C=CC(=O)Nc1cc(-c2ccc(C(C)(C)C)cc2)nc2cc(C(=O)O)ccc12` [I-103, 4-Acrylamido-2-(4-(tert-butyl)phenyl)quinoline-7-carboxylic acid], with more than 10 µM. In turn, `COc1cc(N2CCC(C(F)(F)F)CC2)nc2cc(C(=O)N[C@H](C)CO)ccc12` [I-328, (R)—N-(1-hydroxypropan-2-yl)-4-methoxy-2-(4-(trifluoromethyl)piperidin-1-yl)quinoline-7-carboxamide] registered a GI50 of 1 to 5 µM. As for `CC(C)(C)c1ccc(-c2nc(C(=O)O)cn3cncc23)cc1` [I-94, 8-(4-(tert-Butyl)phenyl)imidazo[1,5-a]pyrazine-6-carboxylic acid], the GI50 is more than 10 µM.

Consider `CC(C)(C)c1ccc(-c2nc3cc(C(=O)O)cc(CO)c3n3cccc23)cc1` [I-279, 4-(4-(tert-butyl)phenyl)-9-(hydroxymethyl)pyrrolo[1,2-a]quinoxaline-7-carboxylic acid], for which the concentration for 50% growth inhibition (GI50) lay within 1 to 5 µM.

`COc1cnc(-c2ccc(C(C)(C)C)cc2)c2nccn12` [I-150, 8-(4-(tert-Butyl)phenyl)-5-methoxyimidazo[1,2-a]pyrazine] displayed a GI50 of more than 10 µM. The compound `O=C(O)c1ccc2c(c1)nc(-c1ccc(C(F)(F)F)cc1Cl)c1cccn12` [I-53, 4-(2-Chloro-4-(trifluoromethyl)phenyl)pyrrolo[1,2-a]quinoxaline-7-carboxylic acid] came in with a GI50 of 1 to 5 µM. Still for that read-out and setting: the figure for `C=CC(=O)NCc1cn2nccc2c(-c2ccc(C(F)(F)F)cc2)n1` [I-316, N-((4-(4-(trifluoromethyl)phenyl)pyrazolo[1,5-a]pyrazin-6-yl)methyl)acrylamide] is not above 1 µM. Still for that read-out and setting: the figure for `CN(C)C(=O)c1ccc2c(c1)nc(-c1ccc(C(C)(C)C)cc1)c1nccn12` [I-74, 4-(4-(tert-Butyl)phenyl)-N,N-dimethylimidazo[1,2-a]quinoxaline-7-carboxamide] is 5 to 10 µM; for `C=CS(=O)(=O)NCc1cn2ccnc2c(-c2ccc(C(C)(C)C)cc2)n1` [I-141, N-((8-(4-(tert-Butyl)phenyl)imidazo[1,2-a]pyrazin-6-yl)methyl)ethenesulfonamide] it is 1 to 5 µM; for `C=CC(=O)NCc1cn2cccc2c(-c2ccc(C(F)(F)F)cc2)n1` [I-319, N-((1-(4-(trifluoromethyl)phenyl)pyrrolo[1,2-a]pyrazin-3-yl)methyl)acrylamide] it is not above 1 µM.

Take `O=C(O)c1ccc2c(C3CCOCC3)cc(-c3ccc(C(F)(F)F)cc3)nc2c1` [I-390, 4-(tetrahydro-2H-pyran-4-yl)-2-(4-(trifluoromethyl)phenyl)quinoline-7-carboxylic acid]: the GI50 lay in the range of 5 to 10 µM. On to `COc1cc(-c2ccc(C(F)(F)F)cc2)nc2cc(C(=O)N3CCC3CO)ccc12` (single isomer, unassigned) [I-372, (2-(hydroxymethyl)azetidin-1-yl) (4-methoxy-2-(4-(trifluoromethyl)phenyl)quinolin-7-yl)methanone], for which the GI50 was in the range of 1 to 5 µM. In turn, `O=C(O)c1ccc2c(c1)nc(N1CCC3(CCCC3)C1)c1cccn12` [I-9, 4-(2-Azaspiro[4.4]nonan-2-yl)pyrrolo[1,2-a]quinoxaline-7-carboxylic acid] showed a GI50 of 1 to 5 µM.

In the case of `O=C(O)c1ccc2c(c1)nc(Oc1cccc(C(F)(F)F)c1)c1cccn12` [I-24, 4-(3-(Trifluoromethyl)phenoxy) pyrrolo[1,2-a] quinoxaline-7-carboxylic acid], the GI50 lay within 1 to 5 µM. Consider `O=C(O)c1ccc2c(c1)nc(N1CCC3(CCCCC3)C1)c1cccn12` [I-28, 4-(2-Azaspiro [4.5]decan-2-yl) pyrrolo[1,2-a] quinoxaline-7-carboxylic acid], for which the GI50 was in the range of 1 to 5 µM. On the same count and under the same terms, the figure for `Cc1cc2c(N3CCC(C(F)(F)F)CC3)nc3cc(C(=O)O)ccc3n2c1` [I-406, 2-Methyl-4-(4-(trifluoromethyl)piperidin-1-yl)pyrrolo[1,2-a]quinoxaline-7-carboxylic acid] is not above 1 µM.
